Earlier results as cited in patent US9399657B2, “Chemiluminescent methods and reagents for analyte detection” (priority 2007, dated 2016).

Molecular target: firefly luciferase (Photinus pyralis, UniProt P08659)
Details: read-out: IC50 (inhibitor of firefly luciferase bioluminescence reaction)

Sequence of firefly luciferase (P08659 whole entry): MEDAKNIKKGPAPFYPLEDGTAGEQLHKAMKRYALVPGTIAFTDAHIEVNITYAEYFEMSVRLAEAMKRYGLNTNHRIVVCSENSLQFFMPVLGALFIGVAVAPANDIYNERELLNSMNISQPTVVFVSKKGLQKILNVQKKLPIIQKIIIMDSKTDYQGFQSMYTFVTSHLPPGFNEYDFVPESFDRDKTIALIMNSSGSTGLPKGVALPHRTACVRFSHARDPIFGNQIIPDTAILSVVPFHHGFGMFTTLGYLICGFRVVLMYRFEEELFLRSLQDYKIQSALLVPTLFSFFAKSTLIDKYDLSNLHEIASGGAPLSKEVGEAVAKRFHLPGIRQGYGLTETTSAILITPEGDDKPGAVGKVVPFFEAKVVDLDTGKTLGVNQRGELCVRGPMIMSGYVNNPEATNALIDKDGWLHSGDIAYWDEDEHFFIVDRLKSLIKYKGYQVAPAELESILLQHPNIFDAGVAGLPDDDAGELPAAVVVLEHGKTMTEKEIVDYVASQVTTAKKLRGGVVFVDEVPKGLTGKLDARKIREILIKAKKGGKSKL

SMILES: O=C(O)c1csc(-c2nc3ccc(O)cc3s2)n1 [firefly dehydroluciferin]
- IC50: 6 nM
